Common to all, as to assay type: biochemical
The target of one assay is T1, Human PI3K beta (Homo sapiens, UniProt P42338).
T1 construct: His (N); host or cells: SF9 insect cells (baculovirus)
Nature of the assay: Human PI3K beta enzyme assay (HTRF). The conditions noted are these: concentration not given, b1387 states 1.1 μM for PI3K α and β; for inhibition at 1.1 µM: read-out: p110 beta Percent Inhibition. An outline of the steps: (§1)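 Compounds were mixed with 25 uM ATP, then with 3.5 uM di-C8 PI(4,5)P2 and His-tagged PI3K isoform (β 5.25 nM, δ 0.75 nM, γ 5 nM) at pH 7.00. After 30 min at room temperature, EDTA stopped the reaction and PIP3 was measured by HTRF over 1 h.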
A general note: Time-resolved FRET reads energy transfer from a long-lived donor to a nearby acceptor.

The next assay concerns the target T2, Human PI3K alpha (Homo sapiens, UniProt P42336).
T2 construct: His (N); host or cells: SF9 insect cells (baculovirus)
Nature of the assay: Human PI3K alpha enzyme assay (HTRF). As to conditions: concentration not given, b1387 states 1.1 μM for PI3K α and β; for inhibition at 1.1 µM: read-out: p110 alpha Percent Inhibition.

A further assay addresses T3, Human PI3K delta (Homo sapiens, UniProt O00329).
T3 construct: His (N); host or cells: SF9 insect cells (baculovirus)
Nature of the assay: Human PI3K delta enzyme assay (HTRF). As to conditions: concentration not given, b1389 states 1.0 μM for PI3K δ and γ; for inhibition at 1 µM: read-out: p110 delta Percent Inhibition. A digest of the protocol:
as §1

The next assay addresses T4, Human PI3K gamma (Homo sapiens, UniProt P48736).
T4 construct: His (N); host or cells: SF9 insect cells (baculovirus)
Nature of the assay: Human PI3K gamma enzyme assay (HTRF). The conditions noted are these: concentration not given, b1389 states 1.0 μM for PI3K δ and γ; for inhibition at 1 µM: read-out: p110 gamma Percent Inhibition. An outline of the steps:
as §1

T2 sequence (P42336 whole entry): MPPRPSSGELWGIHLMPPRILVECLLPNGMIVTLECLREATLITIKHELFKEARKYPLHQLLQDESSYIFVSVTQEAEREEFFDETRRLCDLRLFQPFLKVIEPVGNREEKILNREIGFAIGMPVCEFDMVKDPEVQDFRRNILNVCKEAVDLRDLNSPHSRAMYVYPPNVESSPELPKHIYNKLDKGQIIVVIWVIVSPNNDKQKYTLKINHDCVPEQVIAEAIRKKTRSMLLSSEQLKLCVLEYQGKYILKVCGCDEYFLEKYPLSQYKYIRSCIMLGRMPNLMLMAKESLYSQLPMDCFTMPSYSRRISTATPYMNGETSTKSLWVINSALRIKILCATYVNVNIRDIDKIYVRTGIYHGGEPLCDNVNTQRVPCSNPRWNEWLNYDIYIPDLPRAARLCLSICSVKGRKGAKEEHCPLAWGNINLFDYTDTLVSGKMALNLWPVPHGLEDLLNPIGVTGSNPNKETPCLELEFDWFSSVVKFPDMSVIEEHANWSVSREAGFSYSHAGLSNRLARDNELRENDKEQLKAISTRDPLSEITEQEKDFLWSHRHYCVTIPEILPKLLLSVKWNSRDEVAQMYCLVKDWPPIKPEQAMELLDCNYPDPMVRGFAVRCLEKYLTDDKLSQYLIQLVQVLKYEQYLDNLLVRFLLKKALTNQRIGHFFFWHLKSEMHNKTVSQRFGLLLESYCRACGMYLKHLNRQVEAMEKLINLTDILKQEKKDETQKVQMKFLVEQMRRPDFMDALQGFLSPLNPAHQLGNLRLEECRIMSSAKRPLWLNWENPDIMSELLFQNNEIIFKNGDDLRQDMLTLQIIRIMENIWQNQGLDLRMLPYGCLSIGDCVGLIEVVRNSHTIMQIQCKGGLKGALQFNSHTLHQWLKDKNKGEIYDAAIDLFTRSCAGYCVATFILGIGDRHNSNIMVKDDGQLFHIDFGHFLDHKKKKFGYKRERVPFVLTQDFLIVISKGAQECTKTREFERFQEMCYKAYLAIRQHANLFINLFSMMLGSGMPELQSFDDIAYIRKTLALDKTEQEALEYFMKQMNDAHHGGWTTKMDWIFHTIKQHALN
T2 sequence (P27986 whole entry partner): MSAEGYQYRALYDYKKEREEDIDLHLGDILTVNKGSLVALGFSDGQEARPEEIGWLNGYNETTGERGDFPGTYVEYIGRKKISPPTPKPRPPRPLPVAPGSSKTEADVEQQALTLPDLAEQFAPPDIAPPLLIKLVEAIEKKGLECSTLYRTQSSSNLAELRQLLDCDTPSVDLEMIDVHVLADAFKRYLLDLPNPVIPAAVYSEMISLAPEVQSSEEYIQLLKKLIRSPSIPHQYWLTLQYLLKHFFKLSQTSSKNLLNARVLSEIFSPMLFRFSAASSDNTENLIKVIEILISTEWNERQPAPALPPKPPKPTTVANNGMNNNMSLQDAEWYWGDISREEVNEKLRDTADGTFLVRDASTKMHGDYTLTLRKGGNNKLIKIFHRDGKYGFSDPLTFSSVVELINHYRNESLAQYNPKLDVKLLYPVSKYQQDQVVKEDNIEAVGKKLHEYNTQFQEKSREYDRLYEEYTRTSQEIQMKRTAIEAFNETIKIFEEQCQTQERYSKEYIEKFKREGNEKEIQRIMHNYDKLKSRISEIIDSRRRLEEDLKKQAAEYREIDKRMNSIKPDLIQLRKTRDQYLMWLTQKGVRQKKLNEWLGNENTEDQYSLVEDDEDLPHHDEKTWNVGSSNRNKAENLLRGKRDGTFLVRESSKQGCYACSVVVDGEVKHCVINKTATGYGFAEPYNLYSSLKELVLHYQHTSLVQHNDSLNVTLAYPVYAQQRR
T1 sequence (P42338 whole entry): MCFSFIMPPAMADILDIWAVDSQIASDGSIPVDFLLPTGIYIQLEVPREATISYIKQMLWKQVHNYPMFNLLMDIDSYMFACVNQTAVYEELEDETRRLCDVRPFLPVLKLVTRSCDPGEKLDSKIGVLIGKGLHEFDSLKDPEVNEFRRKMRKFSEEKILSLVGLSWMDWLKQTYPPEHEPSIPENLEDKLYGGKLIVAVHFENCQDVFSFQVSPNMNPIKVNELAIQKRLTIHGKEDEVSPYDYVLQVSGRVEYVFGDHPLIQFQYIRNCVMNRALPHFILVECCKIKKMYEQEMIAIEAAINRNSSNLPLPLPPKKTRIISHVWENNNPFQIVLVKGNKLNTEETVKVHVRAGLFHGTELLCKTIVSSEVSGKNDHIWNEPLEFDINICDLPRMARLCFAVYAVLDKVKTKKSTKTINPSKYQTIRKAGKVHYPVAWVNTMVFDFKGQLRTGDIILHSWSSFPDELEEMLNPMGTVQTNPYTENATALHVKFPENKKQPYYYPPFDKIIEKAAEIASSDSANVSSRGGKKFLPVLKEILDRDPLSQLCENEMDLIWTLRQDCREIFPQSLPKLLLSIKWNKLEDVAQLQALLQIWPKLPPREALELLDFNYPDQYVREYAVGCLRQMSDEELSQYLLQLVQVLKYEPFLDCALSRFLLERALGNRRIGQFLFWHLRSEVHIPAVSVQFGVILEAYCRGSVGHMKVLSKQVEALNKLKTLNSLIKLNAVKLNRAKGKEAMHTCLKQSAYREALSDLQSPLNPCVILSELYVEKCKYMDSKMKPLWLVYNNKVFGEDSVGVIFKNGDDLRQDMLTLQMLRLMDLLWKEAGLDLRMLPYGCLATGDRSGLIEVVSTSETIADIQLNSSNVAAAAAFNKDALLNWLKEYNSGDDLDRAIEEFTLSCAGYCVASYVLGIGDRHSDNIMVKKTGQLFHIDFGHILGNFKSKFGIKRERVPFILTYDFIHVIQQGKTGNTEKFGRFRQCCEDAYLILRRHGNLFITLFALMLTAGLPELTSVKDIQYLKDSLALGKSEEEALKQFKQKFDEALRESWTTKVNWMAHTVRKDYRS
T1 sequence (P27986 whole entry partner): as the sequence (P27986 whole entry partner) above
T4 sequence (P48736 whole entry): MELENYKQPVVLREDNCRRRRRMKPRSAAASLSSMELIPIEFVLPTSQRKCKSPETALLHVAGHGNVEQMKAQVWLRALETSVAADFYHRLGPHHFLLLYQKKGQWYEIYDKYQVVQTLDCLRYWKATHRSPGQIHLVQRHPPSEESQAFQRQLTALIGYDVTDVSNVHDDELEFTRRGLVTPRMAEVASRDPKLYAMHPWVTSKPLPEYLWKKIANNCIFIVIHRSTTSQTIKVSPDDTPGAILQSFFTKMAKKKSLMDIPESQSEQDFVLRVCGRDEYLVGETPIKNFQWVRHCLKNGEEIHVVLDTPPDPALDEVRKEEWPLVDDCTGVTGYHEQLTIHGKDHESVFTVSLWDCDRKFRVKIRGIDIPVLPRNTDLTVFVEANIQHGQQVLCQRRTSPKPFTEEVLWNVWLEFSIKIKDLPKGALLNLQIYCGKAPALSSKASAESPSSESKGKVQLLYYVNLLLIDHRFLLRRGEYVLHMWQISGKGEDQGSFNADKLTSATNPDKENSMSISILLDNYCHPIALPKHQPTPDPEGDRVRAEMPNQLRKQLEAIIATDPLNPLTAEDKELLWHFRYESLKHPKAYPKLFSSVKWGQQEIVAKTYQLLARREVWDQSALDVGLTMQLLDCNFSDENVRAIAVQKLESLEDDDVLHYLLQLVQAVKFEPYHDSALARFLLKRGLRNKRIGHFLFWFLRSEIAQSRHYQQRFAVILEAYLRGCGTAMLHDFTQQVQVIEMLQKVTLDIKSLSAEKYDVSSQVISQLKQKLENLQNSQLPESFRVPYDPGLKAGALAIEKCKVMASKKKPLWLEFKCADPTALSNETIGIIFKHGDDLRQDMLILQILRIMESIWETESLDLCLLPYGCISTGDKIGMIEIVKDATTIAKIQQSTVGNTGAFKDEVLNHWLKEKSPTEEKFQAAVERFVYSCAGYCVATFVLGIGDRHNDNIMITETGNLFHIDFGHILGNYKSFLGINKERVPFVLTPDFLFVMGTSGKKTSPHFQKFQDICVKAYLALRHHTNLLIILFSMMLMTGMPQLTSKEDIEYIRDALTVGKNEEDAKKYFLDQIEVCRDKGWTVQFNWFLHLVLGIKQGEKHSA
T3 sequence (O00329 whole entry): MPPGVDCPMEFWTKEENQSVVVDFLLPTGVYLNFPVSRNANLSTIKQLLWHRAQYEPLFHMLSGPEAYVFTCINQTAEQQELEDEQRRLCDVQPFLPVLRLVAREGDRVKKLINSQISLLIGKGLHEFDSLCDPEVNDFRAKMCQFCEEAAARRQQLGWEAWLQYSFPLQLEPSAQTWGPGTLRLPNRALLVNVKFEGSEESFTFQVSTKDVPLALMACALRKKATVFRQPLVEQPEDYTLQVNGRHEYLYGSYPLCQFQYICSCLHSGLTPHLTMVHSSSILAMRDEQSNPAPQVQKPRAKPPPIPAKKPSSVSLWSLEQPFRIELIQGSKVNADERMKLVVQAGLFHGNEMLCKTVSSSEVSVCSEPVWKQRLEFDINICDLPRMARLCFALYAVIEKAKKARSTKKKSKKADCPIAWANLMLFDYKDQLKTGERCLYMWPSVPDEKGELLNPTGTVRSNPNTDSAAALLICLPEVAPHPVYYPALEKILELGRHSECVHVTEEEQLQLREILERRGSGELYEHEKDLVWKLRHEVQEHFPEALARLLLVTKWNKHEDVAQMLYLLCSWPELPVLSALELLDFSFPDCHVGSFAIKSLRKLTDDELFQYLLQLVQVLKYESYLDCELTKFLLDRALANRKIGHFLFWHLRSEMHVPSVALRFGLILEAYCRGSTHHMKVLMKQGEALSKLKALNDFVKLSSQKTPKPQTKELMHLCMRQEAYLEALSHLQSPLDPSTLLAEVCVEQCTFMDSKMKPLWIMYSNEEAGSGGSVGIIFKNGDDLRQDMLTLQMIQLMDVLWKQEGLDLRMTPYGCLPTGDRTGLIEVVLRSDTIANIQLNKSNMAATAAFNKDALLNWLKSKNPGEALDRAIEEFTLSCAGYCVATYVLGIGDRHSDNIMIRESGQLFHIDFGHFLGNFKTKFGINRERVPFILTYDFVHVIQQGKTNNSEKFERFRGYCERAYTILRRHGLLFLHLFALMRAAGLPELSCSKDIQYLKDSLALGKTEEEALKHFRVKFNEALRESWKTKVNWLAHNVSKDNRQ
T3 sequence (P27986 whole entry partner): as the sequence (P27986 whole entry partner) above

Take `c1ccc2cc(Cc3nc(N4CCOCC4)sc3-c3nnn[nH]3)ccc2c1` [Compound 360, 4-[4-(2-naphthylmethyl)-5-(1H-tetrazol-5-yl)-1,3-thiazol-2-yl]morpholine]: on Human PI3K beta, the “p110 beta Percent Inhibition” value turned out to be 106%. In addition, the “p110 alpha Percent Inhibition” value at Human PI3K alpha stood at 30%. Also, at Human PI3K delta, the “p110 delta Percent Inhibition” value was 110%. On Human PI3K gamma, the “p110 gamma Percent Inhibition” value is on record as 49%.

Turning to `COc1ccc(C(O)c2cc(-c3ccncc3)sc2-c2nnc[nH]2)cn1` (stereo not drawn) [Compound 272], the inhibition at 1.1 µM stood at 96% at Human PI3K beta and 70% on Human PI3K alpha. Besides, the values for the inhibition at 1 µM at Human PI3K delta and on Human PI3K gamma were 70% and 10%, respectively.

For the compound `OC(c1cc(F)ccc1F)c1cc(-c2ccncc2)sc1-c1nnc[nH]1` (stereo not drawn) [Compound 266], the inhibition at 1.1 µM on Human PI3K beta worked out at 90%; at Human PI3K alpha it was 36%. For the same compound, the inhibition at 1 µM at Human PI3K delta came out at 52%; at Human PI3K gamma, 8%.

Regarding `CC(=O)Nc1cc(-c2sc(-c3nnc[nH]3)c(S(=O)(=O)c3ccc(Cl)cc3)c2C#N)ccn1` [Compound 140, N-{4-[4-[(4-chlorophenyl)sulfonyl]-3-cyano-5-(4H-1,2,4-triazol-3-yl)-2-thienyl]pyridin-2-yl}acetamide], the figures for the inhibition at 1.1 µM on Human PI3K beta and at Human PI3K alpha were 47% and 76%, respectively. The inhibition at 1 µM at Human PI3K delta turned out to be 74%; on Human PI3K gamma it was 62%.

On to `Oc1cc(-c2sc(-c3ccncc3)nc2Cc2ccc(Cl)cc2)[nH]n1` [Compound 178, 5-(4-(4-chlorobenzyl)-2-(pyridin-4-yl)thiazol-5-yl)-1H-pyrazol-3-ol], for which the inhibition at 1.1 µM at Human PI3K beta is 109%; on Human PI3K alpha, 20%. Also, the inhibition at 1 µM amounted to 88% on Human PI3K delta and 38% on Human PI3K gamma.

Take `Cc1ccc(F)c(C(O)c2cc(-c3ccncc3)sc2-c2nnc[nH]2)c1` (stereo not drawn) [Compound 188]: the results for the inhibition at 1.1 µM at Human PI3K beta and at Human PI3K alpha were 94% and 47%, respectively. The inhibition at 1 µM at Human PI3K delta worked out at 82%; at Human PI3K gamma, 36%.

`N#Cc1c(N2CCOCC2)sc(C(=O)O)c1C(CCO)c1ccc(Cl)c(Cl)c1` (stereo not drawn) [Compound 347, 4-cyano-3-[1-(3,4-dichlorophenyl)-3-hydroxypropyl]-5-(morpholin-4-yl)thiophene-2-carboxylic acid]: the inhibition at 1.1 µM at Human PI3K beta worked out at 102%; on Human PI3K alpha, 71%. Moreover, the inhibition at 1 µM on Human PI3K delta was 111%; at Human PI3K gamma, 60%.

Turning to `N#Cc1c(-c2ccnnc2)sc(-c2nnc[nH]2)c1C(c1ccc(Cl)cc1)N1CCNCC1` (stereo not drawn) [Compound 227], the figures for the inhibition at 1.1 µM on Human PI3K beta and on Human PI3K alpha were 76% and -2%, respectively. Further, the inhibition at 1 µM turned out to be 24% on Human PI3K delta and 3% at Human PI3K gamma.

Turning to `OC(c1nc(-c2ccccc2)cs1)c1cc(-c2ccncc2)sc1-c1nnc[nH]1` (stereo not drawn) [Compound 133], the inhibition at 1.1 µM at Human PI3K beta was determined as 101%; on Human PI3K alpha it was 84%. In addition, the values for the inhibition at 1 µM at Human PI3K delta and on Human PI3K gamma were 74% and 26%, respectively.

In the case of `NC(=O)c1ccc2ccc(Cc3nc(N4CCOCC4)sc3C(=O)O)cc2c1` [Compound 318], the inhibition at 1.1 µM on Human PI3K beta came out at 96%; on Human PI3K alpha, 18%. Besides, the inhibition at 1 µM on Human PI3K delta came to 76%; at Human PI3K gamma, 14%.

As to `O=C(O)c1sc(N2CCOCC2)nc1Cc1cc2ccccc2s1` [Compound 286], the results for the inhibition at 1.1 µM on Human PI3K beta and at Human PI3K alpha were 92% and 36%, respectively. Also, the inhibition at 1 µM is 104% on Human PI3K delta and 50% on Human PI3K gamma.

As to `COc1cnc(Cl)cc1-c1cc(C(O)c2ccc(Cl)cc2)c(-c2nnc[nH]2)s1` (stereo not drawn) [Compound 197], the inhibition at 1.1 µM on Human PI3K beta turned out to be 23%; at Human PI3K alpha it was 15%. For the same compound, the inhibition at 1 µM worked out at 19% at Human PI3K delta and 4% at Human PI3K gamma.

Consider `Clc1ccc(Cc2nc(-c3ccncc3)sc2-c2nnn[nH]2)cc1` [Compound 190, 4-(4-chlorobenzyl)-2-(pyridin-4-yl)-5-(1H-tetrazol-5-yl)thiazole], for which the inhibition at 1.1 µM at Human PI3K beta is 60%; on Human PI3K alpha it was 3%. Moreover, the results for the inhibition at 1 µM on Human PI3K delta and at Human PI3K gamma were 33% and 7%, respectively.

Turning to `CN(C)C(c1ccc(Cl)cc1)c1cc(-c2ccnc(N)c2)sc1-c1nnc[nH]1` (stereo not drawn) [Compound 185], the inhibition at 1.1 µM at Human PI3K beta came out at 97%; on Human PI3K alpha it was 16%. Besides, the results for the inhibition at 1 µM at Human PI3K delta and on Human PI3K gamma were 50% and 9%, respectively.

As for `N#Cc1c(N2CCOCC2)sc(C(=O)O)c1C(F)(F)c1ccc(Cl)cc1` [Compound 358], the inhibition at 1.1 µM came out at 43% on Human PI3K beta and 13% on Human PI3K alpha. The inhibition at 1 µM on Human PI3K delta amounted to 51%; at Human PI3K gamma it was 32%.

Take `Cc1ccc(C(O)c2cc(-c3ccncc3)sc2-c2nnc[nH]2)c(C)c1` (stereo not drawn) [Compound 141]: the inhibition at 1.1 µM amounted to 89% on Human PI3K beta and 17% at Human PI3K alpha. Besides, the inhibition at 1 µM on Human PI3K delta turned out to be 66%; on Human PI3K gamma, 15%.

For `OC(c1ccc(-c2ccncc2)cc1)c1cc(-c2ccncc2)sc1-c1nnc[nH]1` (stereo not drawn) [Compound 207], the inhibition at 1.1 µM on Human PI3K beta is 83%; on Human PI3K alpha, 27%. Besides, the inhibition at 1 µM worked out at 51% at Human PI3K delta and 9% at Human PI3K gamma.

Regarding `COC(c1ccc(Cl)cc1)c1cc(-c2ccnc(NC(C)=O)c2)sc1-c1nnc[nH]1` (stereo not drawn) [Compound 220], the inhibition at 1.1 µM on Human PI3K beta turned out to be 91%; at Human PI3K alpha it was 92%. Further, the inhibition at 1 µM worked out at 99% at Human PI3K delta and 9% at Human PI3K gamma.

As for `N#Cc1c(N2CCOCC2)sc(C(=O)O)c1Cc1ccc2ccncc2c1` [Compound 309, 4-cyano-3-(isoquinolin-7-ylmethyl)-5-(morpholin-4-yl)thiophene-2-carboxylic acid], the inhibition at 1.1 µM at Human PI3K beta came out at 101%; at Human PI3K alpha, 56%. Further, the inhibition at 1 µM was found to be 108% at Human PI3K delta and 66% on Human PI3K gamma.

Turning to `COc1ccc(C(O)c2cc(-c3ccncc3)sc2-c2nnc[nH]2)cc1Cl` (stereo not drawn) [Compound 191], the inhibition at 1.1 µM was determined as 97% at Human PI3K beta and 26% on Human PI3K alpha. Also, the inhibition at 1 µM on Human PI3K delta stood at 90%; on Human PI3K gamma it was 30%.

As to `CC(=O)Nc1cc(-c2cc(C(c3ccc(Cl)cc3)n3cccn3)c(-c3nnc[nH]3)s2)ccn1` (stereo not drawn) [Compound 206], the results for the inhibition at 1.1 µM on Human PI3K beta and on Human PI3K alpha were 96% and 90%, respectively. Moreover, the inhibition at 1 µM at Human PI3K delta is 106%; on Human PI3K gamma, 11%.

With `OC(c1cc(-c2ccncc2)sc1-c1nnc[nH]1)c1c(F)ccc2ccccc12` (stereo not drawn) [Compound 281], the inhibition at 1.1 µM at Human PI3K beta was determined as 96%. In addition, the “p110 alpha Percent Inhibition” value at Human PI3K alpha stood at 52%. In addition, the “p110 delta Percent Inhibition” value at Human PI3K delta was 97%. Also, the “p110 gamma Percent Inhibition” value at Human PI3K gamma stood at 56%.

Take `COc1cc(C(O)c2cc(-c3ccnc(Cl)c3)sc2-c2nnc[nH]2)c(F)cc1Cl` (stereo not drawn) [Compound 149]: on Human PI3K beta, the “p110 beta Percent Inhibition” value was determined as 109%. Moreover, the “p110 alpha Percent Inhibition” value at Human PI3K alpha amounted to 54%. In addition, the “p110 delta Percent Inhibition” value at Human PI3K delta is listed as 117%. The “p110 gamma Percent Inhibition” value at Human PI3K gamma stood at 75%.

As for `CC(=O)Nc1cc(-c2cc(C(c3ccc(Cl)cc3)N3CC(N(C)C)C3)c(-c3nnc[nH]3)s2)ccn1` (stereo not drawn) [Compound 144], the inhibition at 1.1 µM on Human PI3K beta stood at 94%. The “p110 alpha Percent Inhibition” value at Human PI3K alpha is given as 63%. Further, the values for the inhibition at 1 µM on Human PI3K delta and at Human PI3K gamma were 111% and 19%, respectively.

Consider `O=C(O)c1sc(N2CCOCC2)nc1Cc1cc(F)c2ccccc2c1` [Compound 338], for which the inhibition at 1.1 µM amounted to 110% on Human PI3K beta and 67% at Human PI3K alpha. Also, the inhibition at 1 µM turned out to be 109% on Human PI3K delta and 73% on Human PI3K gamma.

Regarding `CC(=O)Nc1cc(-c2cc(C(c3ccc(Cl)cc3)N3CCC(CN)C3)c(-c3nnc[nH]3)s2)ccn1` (stereo not drawn) [Compound 139], the inhibition at 1.1 µM at Human PI3K beta is 100%; on Human PI3K alpha it was 77%. The figures for the inhibition at 1 µM on Human PI3K delta and at Human PI3K gamma were 105% and 24%, respectively.

Regarding `O=C(O)Cc1sc(N2CCOCC2)nc1Cc1ccc(Cl)c(Cl)c1` [Compound 348, 2-(4-(3,4-dichlorobenzyl)-2-morpholinothiazol-5-yl)acetic acid], the inhibition at 1.1 µM at Human PI3K beta came out at 63%; on Human PI3K alpha it was 4%. Moreover, the inhibition at 1 µM at Human PI3K delta came out at 56%; at Human PI3K gamma, 4%.

As for `COc1cc(C(O)c2cc(-c3ccnc(Cl)c3)sc2-c2nnc[nH]2)c(F)cc1Cl` (stereo not drawn) [Compound 278], the inhibition at 1.1 µM at Human PI3K beta stood at 98%. Moreover, the “p110 alpha Percent Inhibition” value on Human PI3K alpha was 23%. Further, on Human PI3K delta, the “p110 delta Percent Inhibition” value is 83%. In addition, the “p110 gamma Percent Inhibition” value at Human PI3K gamma came to 35%.

Take `CC(=O)Nc1cc(-c2cc(C(O)(C3=CCOCC3)c3ccc(Cl)cc3)c(-c3nnc[nH]3)s2)ccn1` (stereo not drawn) [Compound 273]: the inhibition at 1.1 µM at Human PI3K beta amounted to 73%; on Human PI3K alpha, 88%. Moreover, the inhibition at 1 µM was found to be 98% at Human PI3K delta and 7% on Human PI3K gamma.

On to `CC(=O)Nc1cc(-c2cc(C(c3ccc(Cl)cc3)N3CC(F)(F)C3)c(-c3nnc[nH]3)s2)ccn1` (stereo not drawn) [Compound 216], for which the inhibition at 1.1 µM at Human PI3K beta turned out to be 91%; at Human PI3K alpha it was 64%. Further, the results for the inhibition at 1 µM at Human PI3K delta and on Human PI3K gamma were 99% and 11%, respectively.

The record behind these values is patent publication US8796268B2, “Heteroaryls and uses thereof” (Millennium Pharmaceuticals, Inc., priority 2010, dated 2014).
